Measurements taken from patent US20240174695A1, “Spirocycle Containing Bicyclic Heteroaryl Compounds” (Protego Biopharma, Inc., priority 2022, published 2024).

System: Recombinant amyloidogenic full length light chain protein WIL-FL T46L
Assay: Differential Scanning Fluorimetry Assay (thermal shift assay); also: test concentration or dose not given here
Format: binding
Conditions: Thermal Shift Protein Stability Kit (Biotium), 96-well plates; protein and compounds incubated at RT for 30 min before adding the dye
Method: Differential Scanning Fluorimetry Assay
The stabilization effects the compounds have on the immunoglobulin light chain protein were quantitively measured using a thermal shift assay. Recombinant amyloidogenic full length light chain protein WIL-FL T46L was produced in E. coli, purified, and used in the assay. The Thermal Shift Protein Stability Kit from Biotium was used and the assay was done in 96-well plates following the manufacturer's instructions. The protein and compounds were incubated at RT for 30 min before adding the dye and subjected to the thermal shift assay. The thermal stability (Tm) of each sample was then determined using standard curve fitting methods and compared to vehicle. Data are expressed as temperature shift: [Tm]compound−[Tm]vehicle.
Results • 0-0.5° C.=* • >0.5-1° C.=** • >1-1.5° C.=*** • >1.5-2.5° C.=**** • >2.5° C.=*****

Compound: Cc1cc(OCC2(c3ccccc3)CC2)cn2nc(C(O)CN3CC4(CCN(c5cccnc5C(F)(F)F)CC4)NC3=O)nc12 (stereo not shown) [Compound 35]
- DSF temperature shift: [Tm]compound−[Tm]vehicle: **** (>1.5-2.5° C.=****)

Compound: Cc1cc(F)ncc1N1CCC2(CC1)CN(CC(O)c1nc3c(C)cc(OCC4(c5ccccc5)CC4)cn3n1)C(=O)N2 (stereo not shown) [Compound 36]
- DSF temperature shift: [Tm]compound−[Tm]vehicle: **** (>1.5-2.5° C.=****)

Compound: Cc1cc(OCC2(c3ccccc3)CC2)cn2nc(C(O)CN3CC4(CCN(c5ccnc(Cl)c5)CC4)NC3=O)nc12 (stereo not shown) [Compound 37]
- DSF temperature shift: [Tm]compound−[Tm]vehicle: **** (>1.5-2.5° C.=****)

Compound: Cc1cc(OCC2(c3ccccc3)CC2)cn2nc(C(O)CN3CC4(CCN(c5cnc(C#N)c(F)c5)CC4)NC3=O)nc12 (stereo not shown) [Compound 38]
- DSF temperature shift: [Tm]compound−[Tm]vehicle: **** (>1.5-2.5° C.=****)

Compound: Cc1cc(OCC2(c3ccccc3)CC2)cn2nc(C(O)CN3CC4(CCN(c5cc(F)nc(F)c5)CC4)NC3=O)nc12 (stereo not shown) [Compound 39]
- DSF temperature shift: [Tm]compound−[Tm]vehicle: ** (>0.5-1° C.=**)

Compound: Cc1cc(OCC2(c3ccccc3)CC2)cn2nc(C(O)CN3CC4(CCN(c5ccc(Cl)nc5)CC4)NC3=O)nc12 (stereo not shown) [Compound 41]
- DSF temperature shift: [Tm]compound−[Tm]vehicle: **** (>1.5-2.5° C.=****)

Compound: Cc1cc(OCC2(c3ccccc3)CC2)cn2nc(C(O)CN3CC4(CCN(c5ccc(F)nc5)CC4)NC3=O)nc12 (stereo not shown) [Compound 42]
- DSF temperature shift: [Tm]compound−[Tm]vehicle: **** (>1.5-2.5° C.=****)

Compound: Cc1cc(OCC2(c3ccccc3)CC2)cn2nc(C(O)CN3CC4(CCN(c5ccc(F)nn5)CC4)NC3=O)nc12 (stereo not shown) [Compound 43]
- DSF temperature shift: [Tm]compound−[Tm]vehicle: **** (>1.5-2.5° C.=****)

Compound: Cc1cc(OCC2(c3ccccc3)CC2)cn2nc(C(O)CN3CC4(CCN(c5ccnc(F)n5)CC4)NC3=O)nc12 (stereo not shown) [Compound 44]
- DSF temperature shift: [Tm]compound−[Tm]vehicle: ***** (>2.5° C.=*****)

Compound: Cc1cc(OCC2(c3ccccc3)CC2)cn2nc(C(O)CN3CC4(CCN(c5ccnc(O)c5)CC4)NC3=O)nc12 (stereo not shown) [Compound 45]
- DSF temperature shift: [Tm]compound−[Tm]vehicle: ***** (>2.5° C.=*****)

Compound: Cc1cc(OCC2(c3ccccc3)CC2)cn2nc(C(O)CN3CC4(CCN(c5ccncc5)CC4)NC3=O)nc12 (stereo not shown) [Compound 46]
- DSF temperature shift: [Tm]compound−[Tm]vehicle: **** (>1.5-2.5° C.=****)

Compound: Cc1cc(OCC2(c3ccccc3)CC2)cn2nc(C(O)CN3CC4(CCN(c5ccnnc5)CC4)NC3=O)nc12 (stereo not shown) [Compound 47]
- DSF temperature shift: [Tm]compound−[Tm]vehicle: **** (>1.5-2.5° C.=****)

Compound: Cc1cc(OCC2(c3ccccc3)CC2)cn2nc(C(O)CN3CC4(CCN(c5ccc(C(=O)O)nc5)CC4)NC3=O)nc12 (stereo not shown) [Compound 48]
- DSF temperature shift: [Tm]compound−[Tm]vehicle: **** (>1.5-2.5° C.=****)

Compound: Cc1cc(OCC2(c3ccccc3)CC2)cn2nc(C(O)CN3CC4(CCN(c5cncnc5)CC4)NC3=O)nc12 (stereo not shown) [Compound 49]
- DSF temperature shift: [Tm]compound−[Tm]vehicle: **** (>1.5-2.5° C.=****)

Compound: Cc1nccc(N2CCC3(CC2)CN(CC(O)c2nc4c(C)cc(OCC5(c6ccccc6)CC5)cn4n2)C(=O)N3)n1 (stereo not shown) [Compound 50]
- DSF temperature shift: [Tm]compound−[Tm]vehicle: **** (>1.5-2.5° C.=****)

Compound: Cc1nsc(N2CCC3(CC2)CN(CC(O)c2nc4c(C)cc(OCC5(c6ccccc6)CC5)cn4n2)C(=O)N3)n1 (stereo not shown) [Compound 51]
- DSF temperature shift: [Tm]compound−[Tm]vehicle: ***** (>2.5° C.=*****)

Compound: Cc1cc(OCC2(c3ccccc3)CC2)cn2nc(C(O)CN3CC4(CCN(c5ccc(N)c(F)n5)CC4)NC3=O)nc12 (stereo not shown) [Compound 52]
- DSF temperature shift: [Tm]compound−[Tm]vehicle: ***** (>2.5° C.=*****)

Compound: Cc1cc(OCC2(c3ccccc3)CC2)cn2nc(C(O)CN3CC4(CCN(c5nc(F)ccc5N)CC4)NC3=O)nc12 (stereo not shown) [Compound 53]
- DSF temperature shift: [Tm]compound−[Tm]vehicle: **** (>1.5-2.5° C.=****)

Compound: Cc1cc(OCC2(c3ccccc3)CC2)cn2nc(C(O)CN3CC4(CCN(c5ncc(C(=O)O)n6ccnc56)CC4)NC3=O)nc12 (stereo not shown) [Compound 54]
- DSF temperature shift: [Tm]compound−[Tm]vehicle: **** (>1.5-2.5° C.=****)

Compound: Cc1cc(OCC2(c3ccccc3)CC2)cn2nc(C(O)CN3CC4(CCN(c5cnc(Cl)cn5)CC4)NC3=O)nc12 (stereo not shown) [Compound 55]
- DSF temperature shift: [Tm]compound−[Tm]vehicle: **** (>1.5-2.5° C.=****)

Compound: Cc1cc(OCC2(c3ccccc3)CC2)cn2nc(C(O)CN3CC4(CCN(c5ncccn5)CC4)NC3=O)nc12 (stereo not shown) [Compound 56]
- DSF temperature shift: [Tm]compound−[Tm]vehicle: ***** (>2.5° C.=*****)

Compound: Cc1cc(OCC2(c3ccccc3)CC2)cn2nc(C(O)CN3CC4(CCN(c5nccn6cncc56)CC4)NC3=O)nc12 (stereo not shown) [Compound 57]
- DSF temperature shift: [Tm]compound−[Tm]vehicle: ***** (>2.5° C.=*****)

Compound: Cc1cc(OCC2(c3ccccc3)CC2)cn2nc(C(O)CN3CC4(CCN(c5cnccn5)CC4)NC3=O)nc12 (stereo not shown) [Compound 58]
- DSF temperature shift: [Tm]compound−[Tm]vehicle: ***** (>2.5° C.=*****)

Compound: Cc1cc(OCC2(c3ccccc3)CC2)cn2nc(C(O)CN3CC4(CCN(c5cc(F)ncn5)CC4)NC3=O)nc12 (stereo not shown) [Compound 59]
- DSF temperature shift: [Tm]compound−[Tm]vehicle: **** (>1.5-2.5° C.=****)

Compound: Cc1cc(OCC2(c3ccccc3)CC2)cn2nc(C(O)CN3CC4(CCN(c5ccn(C)n5)CC4)NC3=O)nc12 (stereo not shown) [Compound 61]
- DSF temperature shift: [Tm]compound−[Tm]vehicle: **** (>1.5-2.5° C.=****)

Compound: Cc1cc(OCC2(c3ccccc3)CC2)cn2nc(C(O)CN3CC4(CCN(c5nnn(C)n5)CC4)NC3=O)nc12 (stereo not shown) [Compound 62]
- DSF temperature shift: [Tm]compound−[Tm]vehicle: **** (>1.5-2.5° C.=****)

Compound: Cc1cc(OC[C@H](C)c2ccccc2)cn2nc(CCN3CC4(CCN(c5nccn6cncc56)CC4)NC3=O)nc12 [Compound 63]
- DSF temperature shift: [Tm]compound−[Tm]vehicle: **** (>1.5-2.5° C.=****)

Compound: Cc1cc(OC[C@H](C)c2ccccc2)cn2nc(C(=O)CN3CC4(CCN(c5nccn6cnnc56)CC4)CC3=O)nc12 [Compound 64]
- DSF temperature shift: [Tm]compound−[Tm]vehicle: **** (>1.5-2.5° C.=****)

Compound: Cc1cc(OC[C@H](C)c2ccccc2)cn2nc(C(C)(O)CN3CC4(CCN(C(=O)c5nncn5C)CC4)NC3=O)nc12 (stereo partly shown) [Compound 65]
- DSF temperature shift: [Tm]compound−[Tm]vehicle: **** (>1.5-2.5° C.=****)

Compound: Cc1cc(OC[C@H](C)c2ccccc2)cn2nc(C(C)(O)CN3CC4(CCN(C(=O)Cc5ncnn5C)CC4)NC3=O)nc12 (stereo partly shown) [Compound 66]
- DSF temperature shift: [Tm]compound−[Tm]vehicle: *** (>1-1.5° C.=***)

Compound: Cc1cc(OC[C@H](C)c2ccccc2)cn2nc(C(C)(O)CN3CC4(CCN(c5ccnc(O)c5)CC4)NC3=O)nc12 (stereo partly shown) [Compound 67]
- DSF temperature shift: [Tm]compound−[Tm]vehicle: **** (>1.5-2.5° C.=****)

Compound: Cc1cc(OC[C@H](C)c2ccccc2)cn2nc(C(C)CN3CC4(CN(c5ccnc(O)c5)C4)NC3=O)nc12 (stereo partly drawn) [Compound 68, 2-(2-hydroxy-4-pyridyl)-7-[2-[8-methyl-6-[(2R)-2-phenylpropoxy]-[1,2,4]triazolo[1,5-a]pyridin-2-yl]propyl]-2,5,7-triazaspiro[3.4]octan-6-one]
- DSF temperature shift: [Tm]compound−[Tm]vehicle: **** (>1.5-2.5° C.=****)

Compound: Cc1cc(OC[C@H](C)c2ccccc2)cn2nc(C(O)CN3CC4(CCN(C(=O)c5ncn(C)n5)CC4)NC3=O)nc12 (stereo partly shown) [Compound 69]
- DSF temperature shift: [Tm]compound−[Tm]vehicle: **** (>1.5-2.5° C.=****)

Compound: Cc1cc(OC[C@H](C)c2ccccc2)cn2nc(C(O)CN3CC4(CCN(C(=O)Cc5ncnn5C)CC4)NC3=O)nc12 (stereo partly shown) [Compound 70]
- DSF temperature shift: [Tm]compound−[Tm]vehicle: **** (>1.5-2.5° C.=****)

Compound: Cc1cc(OC[C@H](C)c2ccccc2)cn2nc(C(O)CN3CC4(CCN(C(=O)Cn5nnnc5C)CC4)NC3=O)nc12 (stereo partly shown) [Compound 71]
- DSF temperature shift: [Tm]compound−[Tm]vehicle: **** (>1.5-2.5° C.=****)

Compound: Cc1cc(OC[C@H](C)c2ccccc2)cn2nc(C(O)CN3CC4(CCN(c5cccc(O)n5)CC4)NC3=O)nc12 (stereo partly shown) [Compound 72]
- DSF temperature shift: [Tm]compound−[Tm]vehicle: **** (>1.5-2.5° C.=****)

Compound: Cc1cc(OC[C@H](C)c2ccccc2)cn2nc(C(O)CN3CC4(CCN(c5ccnc(O)c5)C4)NC3=O)nc12 (stereo partly shown) [Compound 73]
- DSF temperature shift: [Tm]compound−[Tm]vehicle: *** (>1-1.5° C.=***)

Compound: Cc1cc(OC[C@H](C)c2ccccc2)cn2nc(C(O)CN3CC4(CCN(c5ccnc(O)c5)CC4)NC3=O)nc12 (stereo partly shown) [Compound 74]
- DSF temperature shift: [Tm]compound−[Tm]vehicle: **** (>1.5-2.5° C.=****)

Compound: Cc1cc(OC[C@H](C)c2ccccc2)cn2nc(C(O)CN3CC4(CCN(c5cncnc5)CC4)NC3=O)nc12 (stereo partly shown) [Compound 75]
- DSF temperature shift: [Tm]compound−[Tm]vehicle: **** (>1.5-2.5° C.=****)

Compound: Cc1cc(OC[C@H](C)c2ccccc2)cn2nc(C(O)CN3CC4(CCN(c5nccn6cnnc56)CC4)NC3=O)nc12 (stereo partly shown) [Compound 76]
- DSF temperature shift: [Tm]compound−[Tm]vehicle: ***** (>2.5° C.=*****)

Compound: Cc1cc(OC[C@H](C)c2ccccc2)cn2nc(C(O)CN3CC4(CCN(c5nccn6cnnc56)CC4)OC3=O)nc12 (stereo partly shown) [Compound 77]
- DSF temperature shift: [Tm]compound−[Tm]vehicle: **** (>1.5-2.5° C.=****)

Compound: Cc1cc(OC[C@H](C)c2ccccc2)cn2nc(C(O)CN3CC4(CCN(c5cnccn5)CC4)NC3=O)nc12 (stereo partly shown) [Compound 78]
- DSF temperature shift: [Tm]compound−[Tm]vehicle: ***** (>2.5° C.=*****)

Compound: Cc1cc(OC[C@H](C)c2ccccc2)cn2nc(C(O)CN3CC4(CCN(C5CCNC(=O)C5)CC4)NC3=O)nc12 (stereo partly shown) [Compound 79]
- DSF temperature shift: [Tm]compound−[Tm]vehicle: **** (>1.5-2.5° C.=****)

Compound: Cc1cc(OC[C@H](C)c2ccccc2)cn2nc(C(O)CN3CC4(CN(c5ccnc(C(=O)O)c5)C4)NC3=O)nc12 (stereo partly shown) [Compound 80]
- DSF temperature shift: [Tm]compound−[Tm]vehicle: ***** (>2.5° C.=*****)

Compound: Cc1cc(OC[C@H](C)c2ccccc2)cn2nc(C(O)CN3CC4(CN(c5ccnc(O)c5)C4)OC3=O)nc12 (stereo partly shown) [Compound 81]
- DSF temperature shift: [Tm]compound−[Tm]vehicle: ***** (>2.5° C.=*****)

Compound: Cc1cc(OC[C@H](C)c2ccccc2)cn2nc(C(O)CN3CC4(CN(c5ccnc(S(C)(=N)=O)c5)C4)NC3=O)nc12 (stereo partly shown) [Compound 82]
- DSF temperature shift: [Tm]compound−[Tm]vehicle: **** (>1.5-2.5° C.=****)

Compound: Cc1cc(OC[C@H](C)c2ccccc2)cn2nc(C(O)CN3CC4(CN(c5cccc(O)n5)C4)NC3=O)nc12 (stereo partly shown) [Compound 83]
- DSF temperature shift: [Tm]compound−[Tm]vehicle: ***** (>2.5° C.=*****)

Compound: Cc1cc(OC[C@H](C)c2ccccc2)cn2nc(C(O)CN3CC4(CN(c5ccnc(O)c5)C4)NC3=O)nc12 (stereo partly shown) [Compound 84]
- DSF temperature shift: [Tm]compound−[Tm]vehicle: ***** (>2.5° C.=*****)

Compound: Cc1cc(OC[C@H](C)c2ccccc2)cn2nc(C(O)CN3CC4(CN(c5ccnc(O)n5)C4)NC3=O)nc12 (stereo partly shown) [Compound 85]
- DSF temperature shift: [Tm]compound−[Tm]vehicle: ***** (>2.5° C.=*****)
